Values of other authors in patent US10213411B2, “Use of prodrugs of fumarates in treating heart failure diseases” (priority 2015, dated 2019).
Structures can show the parent of a compound that is named as a salt.

Experiments:
[1] = healthy subjects, compared by MMF plasma levels
[2] = test system: central nervous system (CNS) inflammation; conditions: preclinical
[3] = test system: central nervous system (CNS) inflammation; conditions: preclinical; remark: listed apart in the source
[4] = test system: astrogliosis and microglial activations

dose comparable to 240 mg DMF (Tecfidera) by plasma levels of MMF [1] | Structure (SMILES) | CNS inflammation in murine EAE [2] | CNS inflammation in rat EAE [3] | astrogliosis and microglial activations associated with EAE [4]
420 mg | COC(=O)/C=C/C(=O)OCCN1C(=O)CCC1=O [ALKS 8700] |  |  | 
 | COC(=O)/C=C/C(=O)OC [DMF, Dimethyl fumarate] | inhibit central nervous system (CNS) inflammation | inhibit central nervous system (CNS) inflammation | inhibit astrogliosis and microglial activations
